The results in this text go back to US6153589A, “2,3-epoxy alcohols, acids and derivatives as anti retroviral chemotherapeutic agents” (The United States of America as represented by the …, priority 1992, dated 2000).

Test [1] has as its target T1, porcine Renin (Sus scrofa, UniProt A0A287APG1).
T1 construct: purchased Sigma
In words: Porcine Renin cleavage of porcine tetradecapeptide (HPLC). It is filed as biochemical. To be noted: 0.5 μl of 50 μg/μl inhibitor in DMSO in 50 μl; pH 6.00, room temperature, 70 min; relative to uninhibited control. An excerpt:
Renin Activity: Porcine Renin Cleavage of Porcine Tetradecapeptide
Proteolytic enzymes are ubiquitous in many living systems. Renin is an asparxyl protease found in mammals which is responsible for the regulation of blood pressure. Structural and functional similarities between Renin and retroviral proteases have been previously noted (Pearl, L. H., Taylor, W. R., (1987) Nature, 329, 351-354). Consequently, successful therapeutic inhibition of retroviral proteases depends on the ability of the inhibitor to inhibit the retroviral enzyme while having a greatly diminished effect on normally occurring enzymes like Renin. The failure to inhibit the desired enzyme selectively may have an adverse effect on normal biochemical functions. The similarity of Renin to retroviral proteases and its viral normal bodily function makes it an attractive system in which to examine inhibitory selectivity.
Renin activity was determined by a method similar to that described above for the HIV protease. A solution containing 0.37 m unit (0.5 μl of stock solution containing 0.75 m unit/μl) of porcine Renin (Sigma) was added to 5 μg of porcine angiotensinogen in 50 μl of 0.1 M citrate-phosphate buffer (pH 6.00) containing 0.25% NP-40. A DMSO solution containing the inhibitor (0.5 μl of a 50 μg/μl solution) was added and the reaction was allowed to incubate at room temperature for 70 min. The entire mixture was analyzed by HPLC chromatographic analysis was perforemd on a 4.6×250 mm Lichrosorb RP-18 column eluting with a gradient of 0-50% acetonitrile in 0.02 M KH2 Po4 (pH 4.7) over 30 min monitoring absorbance at 206 nm. Appearance of both the tetrapeptide and the decapeptide products may be monitored under these conditions. Enzyme activity is expressed as the amount of tetrapeptide produced relative to an uninhibited control, and are summarized in Table 3 below.

The subject of test [2] is HIV-2 protease. In words: HIV protease cleavage of nonapeptide (HPLC). The class given is biochemical. As to conditions: 0.5 μl of 10 μg/μl inhibitor in DMSO per 10 μl reaction; pH 6.5, room temperature; pentapeptide product relative to DMSO control; sampled at ca. 16 and 40 hr (time not given). The procedure:
Activity Against HIV Protease
The assay for proteolyic activity is a modified version of that previously described by Copeland et al., Gene Anal. Tech., 5:109-115 (1988). For each assay to be performed 2 microliters of protease solution (ca. 100 ng) is added to 3 μg of nonapeptide (Val-Ser-Gln-Asn-Tyr-Pro-Ile-Val-Gln-NH2) in 8 μl of 200 mM sodium phosphate, 1 M NaCl, 5% glycerol, 0.25% Nonidet-40, at pH 6.5. This affords a stock solution containing 10 μl per number of reactions. This stock is aliquoted out in 10 μl portions to which 0.5 μl of DMSO (a control is run with each set of assays to compensate for minor experimental variations) or a DMSO solution containing 10 μg/μl of an inhibitor, i.e., any one of the compounds of the present invention, is added. The reactions were incubated at room temperature and 4 μl portions were removed at ca. 16 and 40 hr. intervals. HPLC analysis was performed on a 4.6×250 mm Lichrosorb RP-18 column eluted with a gradient of 0-40% acetonitrile in water (containing 0.05% TFA) over 30 min monitoring absorbance at 206 nm. Progress of the enzymatic cleavage was followed by monitoring the appearance of the pentapeptide (Val-Ser-Gln-Asn-Tyr-OH) cleavage product. The activity is expressed as the amount of the pentapeptide (Val-Ser-Gln-Asn-Tyr-OH) observed relative to the control reaction for that set of assays.
Inhibition of HIV-2 protease

Test [3] has as its system HIV1 IIIb. Put plainly: microbe, parasite or virus in culture. It is filed as cell-based. To be noted: Human immunodeficiency virus 1, IIIB; for viability at 10 µg/mL: 10 ug/ml; for viability at 23 µg/mL: 23 ug/ml; for viability at 11.5 µg/mL: 11.5 ug/ml; for viability at 31.9 µg/mL: 31.9 ug/ml; for viability at 3.9 µg/mL: 3.9 ug/ml; for viability at 1 µg/mL: 1 ug/ml; for viability at 6.3 µg/mL: 6.3 ug/ml; for viability at 31.5 µg/mL: 31.5 ug/ml; for viability at 24.6 µg/mL: 24.6 ug/ml; for viability at 27.2 µg/mL: 27.2 ug/ml. An outline of the steps:
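Human host cells infected with HIV1 IIIb (virus-producing H9 cells or cell-free virus) and incubated seven days with compound. Viable cells measured by XTT formazan absorbance; response expressed as % of uninfected controls against virus kill %. Some cultures redosed after 3 days.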

Where [4] appears, read: 168 h, read-out: Antiviral Effect (viable cells as % of uninfected controls), run 15*, source V (cell free virus), virus kill 25.0%, culture redosed with compound after 3 days.

Read-outs that look alike come from different tables or passages of the source.

T1 sequence (A0A287APG1 24-407): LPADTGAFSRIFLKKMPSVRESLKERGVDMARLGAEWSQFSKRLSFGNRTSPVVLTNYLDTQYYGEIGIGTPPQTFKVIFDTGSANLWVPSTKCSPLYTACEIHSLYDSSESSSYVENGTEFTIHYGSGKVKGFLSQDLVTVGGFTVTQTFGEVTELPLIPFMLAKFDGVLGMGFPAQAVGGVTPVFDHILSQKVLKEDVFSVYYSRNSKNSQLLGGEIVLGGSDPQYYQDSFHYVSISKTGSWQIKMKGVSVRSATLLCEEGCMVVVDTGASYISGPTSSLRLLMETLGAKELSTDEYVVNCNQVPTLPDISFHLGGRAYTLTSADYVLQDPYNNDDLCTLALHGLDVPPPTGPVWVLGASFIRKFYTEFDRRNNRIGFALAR

For `O=[N+]([O-])c1ccc(OCC2CO2)cc1` (stereo not drawn) [1,2-Epoxy-3-(p-nitrophenoxy)propane, reference compound], the “Percent control (tetrapeptide produced)” value in test [1] is 106%. The “Percent Control Cleavage of Nonapeptide HIV-1 Cleavage Site Fragment” value (“Percent Control Cleavage” below) in test [2] was 18%.
For `CCCCCCCCC[C@H]1O[C@H]1CO` [Example 11, (2S-cis)-3-Nonyloxirane Methanol], the viability at 10 µg/mL in test [3] (168 h, read-out: Antiviral Effect (viable cells as % of uninfected controls), run 8, source V (cell free virus), virus kill 25.0%) was determined as 110%; in test [3] (H9, 168 h, read-out: Antiviral Effect (viable cells as % of uninfected controls), run 1, source C (virus producing H9 cells), virus kill 6.0%), 60.2%. In addition, the viability at 23 µg/mL in test [3] (168 h, read-out: Antiviral Effect (viable cells as % of uninfected controls), run 9, source V (cell free virus), virus kill 23.0%) was determined as 30%; in test [3] (H9, 168 h, read-out: Antiviral Effect (viable cells as % of uninfected controls), run 3, source C (virus producing H9 cells), virus kill 14.0%), 19.9%. Further, the viability at 11.5 µg/mL in test [3] (168 h, read-out: Antiviral Effect (viable cells as % of uninfected controls), run 10, source V (cell free virus), virus kill 49.0%) came to 68.5%; in test [3] (168 h, read-out: Antiviral Effect (viable cells as % of uninfected controls), run 12, source V (cell free virus), virus kill 30.0%), 80.4%; in test [3] (H9, 168 h, read-out: Antiviral Effect (viable cells as % of uninfected controls), run 4, source C (virus producing H9 cells), virus kill 12.5%), 18.1%; in test [3] (H9, 168 h, read-out: Antiviral Effect (viable cells as % of uninfected controls), run 6, source C (virus producing H9 cells), virus kill 9.0%), 12.3%. Also, the viability at 31.9 µg/mL in test [3] (168 h, read-out: Antiviral Effect (viable cells as % of uninfected controls), run 11, source V (cell free virus), virus kill 53.0%) is 65.1%; in test [3] (168 h, read-out: Antiviral Effect (viable cells as % of uninfected controls), run 13, source V (cell free virus), virus kill 22.0%), 82.6%; in test [3] (H9, 168 h, read-out: Antiviral Effect (viable cells as % of uninfected controls), run 5, source C (virus producing H9 cells), virus kill 13.0%), 23.9%; in test [3] (H9, 168 h, read-out: Antiviral Effect (viable cells as % of uninfected controls), run 7, source C (virus producing H9 cells), virus kill 11.0%), 13%. In addition, the viability at 3.9 µg/mL in test [3] (168 h, read-out: Antiviral Effect (viable cells as % of uninfected controls), run 14, source V (cell free virus), virus kill 20.0%) was determined as 21.5%; in test [3] (setting [4]) it was 32.4%. Besides, the viability at 1 µg/mL in test [3] (H9, 168 h, read-out: Antiviral Effect (viable cells as % of uninfected controls), run 2, source C (virus producing H9 cells), virus kill 25.0%) came to 37.5%. Also, the “Percent control (tetrapeptide produced)” value in test [1] amounted to 106%. In test [2], the “Percent Control Cleavage” value worked out at 85%.
As to `CCCCCCCCC[C@H]1O[C@H]1C(=O)O` [Example 21, (2R-cis)-3-Nonyloxiranecarboxylic Acid], the viability at 10 µg/mL in test [3] (168 h, read-out: Antiviral Effect (viable cells as % of uninfected controls), run 8, source V (cell free virus), virus kill 23.0%) was 94%; in test [3] (H9, 168 h, read-out: Antiviral Effect (viable cells as % of uninfected controls), run 2, source C (virus producing H9 cells), virus kill 22.0%), 27.3%. For the same compound, the viability at 6.3 µg/mL is 25.7% in test [3] (168 h, read-out: Antiviral Effect (viable cells as % of uninfected controls), run 9, source V (cell free virus), virus kill 19.0%) and 16.6% in test [3] (H9, 168 h, read-out: Antiviral Effect (viable cells as % of uninfected controls), run 3, source C (virus producing H9 cells), virus kill 12.0%). Also, the viability at 31.5 µg/mL in test [3] (168 h, read-out: Antiviral Effect (viable cells as % of uninfected controls), run 10, source V (cell free virus), virus kill 53.0%) turned out to be 75.3%; in test [3] (168 h, read-out: Antiviral Effect (viable cells as % of uninfected controls), run 12, source V (cell free virus), virus kill 27.0%), 62%; in test [3] (H9, 168 h, read-out: Antiviral Effect (viable cells as % of uninfected controls), run 4, source C (virus producing H9 cells), virus kill 14.0%) it was 19.6%; in test [3] (H9, 168 h, read-out: Antiviral Effect (viable cells as % of uninfected controls), run 6, source C (virus producing H9 cells), virus kill 12.0%), 10.7%. Besides, the viability at 24.6 µg/mL in test [3] (168 h, read-out: Antiviral Effect (viable cells as % of uninfected controls), run 11, source V (cell free virus), virus kill 57.0%) is 64.3%; in test [3] (168 h, read-out: Antiviral Effect (viable cells as % of uninfected controls), run 13, source V (cell free virus), virus kill 40.0%), 88%; in test [3] (H9, 168 h, read-out: Antiviral Effect (viable cells as % of uninfected controls), run 5, source C (virus producing H9 cells), virus kill 14.0%), 21.6%; in test [3] (H9, 168 h, read-out: Antiviral Effect (viable cells as % of uninfected controls), run 7, source C (virus producing H9 cells), virus kill 18.0%), 13%. In addition, the viability at 27.2 µg/mL was determined as 25.7% in test [3] (168 h, read-out: Antiviral Effect (viable cells as % of uninfected controls), run 14, source V (cell free virus), virus kill 18.0%) and 28.1% in test [3] (setting [4]). The viability at 1 µg/mL in test [3] (H9, 168 h, read-out: Antiviral Effect (viable cells as % of uninfected controls), run 1, source C (virus producing H9 cells), virus kill 9.0%) came out at 18.9%. Further, in test [1], the “Percent control (tetrapeptide produced)” value is reported as 86%.
As for `CCCCCCCCC[C@@H]1O[C@H]1C(=O)O` [Example 35, (2R-trans)-3-Nonyloxiranecarboxylic Acid], in test [1], the “Percent control (tetrapeptide produced)” value is 72%. Besides, in test [2], the “Percent Control Cleavage” value was 77%.
On to `CCCCCCCCC[C@H]1O[C@@H]1C(=O)O` [Example 36, (2S-trans)-3-Nonyloxiranecarboxylic acid], for which the “Percent control (tetrapeptide produced)” value in test [1] is recorded as 12%. Moreover, the “Percent Control Cleavage” value in test [2] is 12%.
`CCCCCCCCCCC[C@@H]1O[C@H]1C(=O)O` [Example 39, (2R-trans)-3-Undecyloxiranecarboxylic Acid]: the “Percent control (tetrapeptide produced)” value in test [1] was 51%.
In the case of `CCCCCCCCCCC[C@H]1O[C@@H]1C(=O)O` [Example 40, (2S-trans)-3-Undecyloxiranecarboxylic Acid], the “Percent control (tetrapeptide produced)” value in test [1] amounted to 71%. Moreover, the “Percent Control Cleavage” value in test [2] is recorded as 93%.
